# Source: US20150017380A1, “ABSORBENT FOOD PAD HAVING DISCRETE AIRFLOW PASSAGES” (Paper-Pak Industries, priority 2013, published 2015)
# Assay: SO2 generation of Na2S2O5 in an open environment
# Type: physicochemical
# Description: FIG. 6A and FIG. 6B show the results of a test that was performed to establish how Na2S2O5 reacts with the environment, and the effect of changes in relative humidity. 0.1 g of Na2S2O5 on sampling “boats” were placed on top of a counter; i.e., in an “open” environment. The concentration of SO2 gas (in parts per million, ppm) in the air at about 2.5 cm (about 1″) above the Na2S2O5 was measured daily for more than 50 days of testing. The relative humidity was also measured for each day of testing.
structure (smiles),measurement,setting,value
"O=S([O-])S(=O)(=O)[O-].[Na+].[Na+] [Na2S2O5, sodium metabisulfite]",average SO2 concentration generated,"0.1 grams of Na2S2O5, open environment, air about 2.5 cm above the sample, up to 50 days",0.5 ppm
same,duration of continuous SO2 generation,conclusion from the several tests,more than 50 days
